The values that follow are results of earlier work, collected in patent US10105415B2, “Compositions comprising granulocyte-macrophage colony-stimulating factor for the treatment of inflammatory bowel disease” (priority 2014, dated 2018).

Assay in series [1]: not given
The source holds these as a separate data set.

For series [2] the following is noted: given orally.
For series [3] the following is noted: oral / local.
For series [4] the following is noted: adverse effect frequency.
A further series concerns Pseudomonas aeruginosa. The conditions noted are these: controlled clinical trials.
For series [5], the system named is strains of organisms from the susceptible genera.
In series [6] the test system is polymorphonuclear leukocytes.
The subject of series [7] is resistant bacterial strains. The conditions noted are these: controlled clinical trials, oral or intravenous.
A further series concerns Crohn's disease. The conditions noted are these: systemic (intravenous or subcutaneous), CD patients.
The conditions of series [8]: given subcutaneously or infused intravenously for systemic effect.

On to `C[C@@H]1O[C@@H]1P(=O)(O)O` [Fosfomycin calcium monohydrate], for which the “pH of 0.4% solution” value (0.4% solution) is reported as 8.1-9.6. The solubility in water result in series [1] was “sparingly soluble in water”. The bioavailability in [2] is not below 12%. Also, in series [3], the tolerability / irritation entry is “less irritating to the stomach”.
For `C[C@@H]1O[C@@H]1P(=O)(O)O` [Fosfomycin disodium], the “pH of 5% solution” value was 9.0-10.5. In addition, in series [1], the solubility in water result is reported as “highly soluble in water”. Moreover, the bioavailability entry in series [2] is on record as “high bioavailability”. The tolerability / irritation entry in series [3] is “locally irritant if un-neutralized”.
Regarding `C[C@@H]1O[C@@H]1P(=O)(O)O.NC(CO)(CO)CO` [Fosfomycin trometamol], the “pH of 5% solution” value is recorded as 3.5-5.5. The solubility in water result in series [1] is “highly soluble in water”. Also, the bioavailability entry in series [2] was “about 40%”. The tolerability / irritation result in [3] is recorded as “well tolerated”.
Take `C[C@@H]1O[C@@H]1P(=O)(O)O` [Fosfomycin, [(2R,3S)-3-methyloxiran-2-yl]phosphonic acid]: in [4], the eosinophilia is recorded as 0.2%, the “transient rashes (evidence of allergy)” value is given as 0.3 % of cases and the “transiently raised liver enzymes” value is listed as 0.3 % of cases. Further, in the series on Pseudomonas aeruginosa, the “appearance of resistant bacterial strains, maximum” value was not above 15%. For the same molecule, the “synergistic effect, share of tested strains” value in series [5] (early studies, various antibiotic combinations) is on record as 70-100%. The synergy rates in series [5] (subsequent more extensive studies) is reported as 36-74%. In addition, in series [6], the “concentration in polymorphonuclear leukocytes relative to extracellular fluid” value is given as “twice”. Moreover, the “appearance of resistant bacterial strains, overall” value in [7] is recorded as 3.0%.
For “GM-CSF: Monomeric glycoprotein of 127 amino-acid residues (SEQ ID NO: 2), colony-stimulating factor; recombinant forms regramostim, sargramostim, molgramostim”, in the series on Crohn's disease, the primary therapeutic endpoints entry is on record as “failed to achieve their primary therapeutic endpoints”. Besides, the plasma concentrations achieved in series [8] is given as more than 1 ng/mL.

Broadly, the bioavailability is dose-corrected exposure relative to a reference, in per cent.
